Test results published in patent publication US20100222332A1, “PYRAZOLO-PYRAZINES DERIVATIVES USED AS G PROTEIN INHIBITORS” (Ipsen Pharma S.A.S., priority 2007, published 2010).
Structures can show the parent of a compound that is named as a salt.

SMILES | melting point
N[C@@H](CSSC[C@H](N)C(=O)N1CCn2nc(-c3ccccc3)cc2[C@@H]1CC1CCCCC1)C(=O)N1CCn2nc(-c3ccccc3)cc2[C@@H]1CC1CCCCC1 (as salt: hydrochloride) [Example 24, (2R)-3-({(2R)-2-amino-3-[(4S)-4-(cyclohexylmethyl)-2-phenyl-6,7-dihydropyrazolo[1,5-a]pyrazin-5(4H)-yl]-3-oxopropyl}dithio)-1-[(4S)-4-(cyclohexylmethyl)-2-phenyl-6,7-dihydropyrazolo[1,5-a]pyrazin-5(4H)-yl]-1-oxopropan-2-amine hydrochloride] | 214 to 219 °C
N[C@@H](CSSC[C@H](N)C(=O)N1CCn2nc(-c3ccccc3)cc2[C@H]1CC1CCCCC1)C(=O)N1CCn2nc(-c3ccccc3)cc2[C@H]1CC1CCCCC1 (as salt: hydrochloride) [Example 26, (1R)-3-({(2R)-2-amino-3-[(4R)-4-(cyclohexylmethyl)-2-phenyl-6,7-dihydropyrazolo[1,5-a]pyrazin-5(4H)-yl]-3-oxopropyl}dithio)-1-[(4R)-4-(cyclohexylmethyl)-2-phenyl-6,7-dihydropyrazolo[1,5-a]pyrazin-5(4H)-yl]-1-oxopropan-2-amine hydrochloride] | 212 to 217 °C
CC(C)(C)OC(=O)N[C@@H](C[Se][Se]C[C@H](NC(=O)OC(C)(C)C)C(=O)N1CCn2nc(-c3ccccc3)cc2C1CC1CCCCC1)C(=O)N1CCn2nc(-c3ccccc3)cc2C1CC1CCCCC1 (mixture of isomers) | 117 to 120 °C
N[C@@H](C[Se][Se]C[C@H](N)C(=O)N1CCn2nc(-c3ccccc3)cc2C1CC1CCCCC1)C(=O)N1CCn2nc(-c3ccccc3)cc2C1CC1CCCCC1 (mixture of isomers) (as salt: hydrochloride) | 217 to 220 °C (dec.)
N[C@@H](CSSC[C@H](N)C(=O)N1CCn2nc(-c3ccccc3)cc2C1CC1CCCCC1)C(=O)N1CCn2nc(-c3ccccc3)cc2C1CC1CCCCC1 (mixture of isomers) (as salt: hydrochloride) [Example 12, (2R)-3-({(2R)-2-amino-3-[(4RS)-4-(cyclohexylmethyl)-2-phenyl-6,7-dihydropyrazolo[1,5-a]pyrazin-5(4H)-yl]-3-oxopropyl}dithio)-1-[(4RS)-4-(cyclohexylmethyl)-2-phenyl-6,7-dihydropyrazolo[1,5-a]pyrazin-5(4H)-yl]-1-oxopropan-2-amine hydrochloride] | 218 °C (dec.)
N[C@@H](CSSC[C@H](N)C(=O)N1CCn2nc(-c3ccccc3)cc2C1CCc1ccccc1)C(=O)N1CCn2nc(-c3ccccc3)cc2C1CCc1ccccc1 (mixture of isomers) (as salt: hydrochloride) [Example 13, (2R)-3-({(2R)-2-amino-3-oxo-3-[(4RS)-2-phenyl-4-(2-phenylethyl)-6,7-dihydropyrazolo[1,5-a]pyrazin-5(4H)-yl]propyl}dithio)-1-oxo-1-[(4RS)-2-phenyl-4-(2-phenylethyl)-6,7-dihydropyrazolo[1,5-a]pyrazin-5(4H)-yl]propan-2-amine hydrochloride] | 208 °C (dec.)
N[C@@H](CSSC[C@H](N)C(=O)N1CCn2nc(-c3ccncc3)cc2C1CCc1ccccc1)C(=O)N1CCn2nc(-c3ccncc3)cc2C1CCc1ccccc1 (mixture of isomers) (as salt: hydrochloride) [Example 14, (2R)-3-({(2R)-2-amino-3-oxo-3-[(4RS)-4-(2-phenylethyl)-2-pyridin-4-yl-6,7-dihydropyrazolo[1,5-a]pyrazin-5(4H)-yl]propyl}dithio)-1-oxo-1-[(4RS)-4-(2-phenylethyl)-2-pyridin-4-yl-6,7-dihydropyrazolo[1,5-a]pyrazin-5(4H)-yl]propan-2-amine hydrochloride] | 227 °C (dec.)
N[C@@H](CSSC[C@H](N)C(=O)N1CCn2nc(-c3cccnc3)cc2C1CCc1ccccc1)C(=O)N1CCn2nc(-c3cccnc3)cc2C1CCc1ccccc1 (mixture of isomers) (as salt: hydrochloride) [Example 15, (2R)-3-({(2R)-2-amino-3-oxo-3-[(4RS)-4-(2-phenylethyl)-2-pyridin-3-yl-6,7-dihydropyrazolo[1,5-a]pyrazin-5(4H)-yl]propyl}dithio)-1-oxo-1-[(4RS)-4-(2-phenylethyl)-2-pyridin-3-yl-6,7-dihydropyrazolo[1,5-a]pyrazin-5(4H)-yl]propan-2-amine hydrochloride] | 223 °C (dec.)
N[C@@H](CSSC[C@H](N)C(=O)N1CCn2nc(-c3ccc4c(c3)OCO4)cc2C1CCc1ccccc1)C(=O)N1CCn2nc(-c3ccc4c(c3)OCO4)cc2C1CCc1ccccc1 (mixture of isomers) (as salt: hydrochloride) [Example 16, (2R)-3-({(2R)-2-amino-3-[(4RS)-2-(1,3-benzodioxol-5-yl)-4-(2-phenylethyl)-6,7-dihydropyrazolo[1,5-a]pyrazin-5(4H)-yl]-3-oxopropyl}dithio)-1-[(4RS)-2-(1,3-benzodioxol-5-yl)-4-(2-phenylethyl)-6,7-dihydropyrazolo[1,5-a]pyrazin-5(4H)-yl]-1-oxopropan-2-amine hydrochloride] | 221 °C (dec.)
COc1cc(-c2cc3n(n2)CCN(C(=O)[C@@H](N)CSSC[C@H](N)C(=O)N2CCn4nc(-c5cc(OC)c(OC)c(OC)c5)cc4C2CCc2ccccc2)C3CCc2ccccc2)cc(OC)c1OC (mixture of isomers) (as salt: hydrochloride) [Example 17, (2R)-3-({(2R)-2-amino-3-oxo-3-[(4RS)-4-(2-phenylethyl)-2-(3,4,5-trimethoxyphenyl)-6,7-dihydropyrazolo[1,5-a]pyrazin-5(4H)-yl]propyl}dithio)-1-oxo-1-[(4RS)-4-(2-phenylethyl)-2-(3,4,5-trimethoxyphenyl)-6,7-dihydropyrazolo[1,5-a]pyrazin-5(4H)-yl]propan-2-amine hydrochloride] | 211 °C (dec.)
N[C@@H](CSSC[C@H](N)C(=O)N1CCn2nc(-c3cccs3)cc2C1CCc1ccccc1)C(=O)N1CCn2nc(-c3cccs3)cc2C1CCc1ccccc1 (mixture of isomers) (as salt: hydrochloride) [Example 18, (2R)-3-({(2R)-2-amino-3-oxo-3-[(4RS)-4-(2-phenylethyl)-2-(2-thienyl)-6,7-dihydropyrazolo[1,5-a]pyrazin-5(4H)-yl]propyl}dithio)-1-oxo-1-[(4RS)-4-(2-phenylethyl)-2-(2-thienyl)-6,7-dihydropyrazolo[1,5-a]pyrazin-5(4H)-yl]propan-2-amine hydrochloride] | 218 °C (dec.)
N[C@@H](CSSC[C@H](N)C(=O)N1CCn2nc(-c3ccco3)cc2C1CCc1ccccc1)C(=O)N1CCn2nc(-c3ccco3)cc2C1CCc1ccccc1 (mixture of isomers) (as salt: hydrochloride) [Example 19, (2R)-3-({(2R)-2-amino-3-[(4RS)-2-(2-furyl)-4-(2-phenylethyl)-6,7-dihydropyrazolo[1,5-a]pyrazin-5(4H)-yl]-3-oxopropyl}dithio)-1-[(4RS)-2-(2-furyl)-4-(2-phenylethyl)-6,7-dihydropyrazolo[1,5-a]pyrazin-5(4H)-yl]-1-oxopropan-2-amine hydrochloride] | 207 °C (dec.)
